Results taken from patent US9572788B2, “Cell permeable inhibitors of anaphase promoting complex” (President and Fellows of Harvard College, priority 2014, dated 2017).

Assays:
Format in all cases: cell-based, human
[1] = test system: HeLa cells; experiment: Immunofluorescence of mitotic spindle and interkinetochore distance; design: Median inter-kinetochore distance / Average inter-kinetochore distance: unit not given here; settings: for Effect on mitotic spindle: asynchronous HeLa, 2 h, 12 μM proTAME, nocodazole or taxol
Experimental: HeLa cells grown in DMEM+10% FBS were plated on 25 mm glass coverslips in a E-well dish at a density of 130,000/ml×3 ml 48 h prior to treatment. They were then treated with 0.06% DMSO, 12 μM proTAME, 300 nM nocodazole or 300 nM taxol for 2 h. The cells were washed twice with PBS and fixed with 3% paraformaldehyde for 15 min. The cells were then washed with PBS and permeabilized with PBS plus 0.5% Triton X-100 for 2 min. The cells were then washed with PBS and blocked with PBS plus 5% FBS for 1 h. CREST antisera diluted 1:50 into PBS was added to the cells and incubated at room temperature for 1 h. The cells were washed with PBS and incubated with 1:1000 anti-human-Alexa 568 (Invitrogen, A21090) and 1:100 anti-α-tubulin-FITC for 1 h. The cells were then washed with PBS and the nuclei were stained with 1 μg/ml Hoechst 33342. The cover slips were mounted in 0.1M N-propylgallate in 9:1 glycerol:PBS. Z-series images were taken on a Nikon TE2000 microscope with PerkinElmer spinning disk confocal device. Maximal Z-projection images of individual cells were made by Image J. To measure interkinetochore distances, a straight line was drawn across a kinetochore pair in the same confocal plane and pixel intensities along the line were plotted so that each kinetochore would be represented by a peak on the line. The interkinetochore distance was calculated as the distance between the peaks. Fifty-five kinetochore pairs from 5 cells treated with DMSO or proTAME were measured and the p-value was calculated with a paired student test.

[2] = test system: HeLa H2B-GFP cells; experiment: Chromosome congression analysis; settings: for Congression delay: 10 nM nocodazole or 12 μM proTAME; for Average chromosome congression time / Median chromosome congression time: Fig S4C
Experimental: HeLa H2B-GFP cells were plated in 35 mm glass-bottom dishes (MatTek) in DMEM+10% FBS at 20% confluence one day prior to the experiment and synchronized by double thymidine block as described above. Drugs were added as follows to a final volume of 3 ml from 2× concentrated preparation in culture medium. DMSO (0.06%), proTAME (3 and 12 μM) or 10 nM Nocodazole were added 8 h after release from the second block, while MG132 (10 μM) was added at 10 h. H2B-GFP was imaged for 4 hrs every 3 min at 40× magnification as described above.

[3] = test system: RPE1-H2B-GFP cells; experiment: Fluorescence live cell imaging with survival (Cox) analysis, RPE1; settings: proTAME 6 μM; for % rate of mitotic exit: relative to DMSO control, Cox model, apcin/apcin-M 25 μM; for Median mitotic duration: apcin or apcin-M 25 μM
Experimental: RPE1-H2B-GFP or U2OS-H2B-GFP cells were plated in 24-well glass-bottom plates 18-24 hours prior to siRNA transfection using RNAiMax (Invitrogen). After treatment with compound(s), DIC and GFP images were captured at 6-minute intervals for 45 hours. Movies were manually analyzed using Nikon Elements software or Image J.
RPE1-H2B-GFP or U2OS-H2B-GFP cells were plated in 24-well glass-bottom plates (Greiner BioOne, 662892) 18-24 hours prior to siRNA transfection using RNAiMax (Invitrogen). Plates were inserted into a covered chamber supplied with humidified 5% CO2 and mounted onto a motorized microscope stage (Prior Scientific). DIC and FITC images were captured at 6 minute intervals for 45 hours using a Nikon Ti inverted fluorescence microscope fitted with a 37° C. enclosed incubation chamber and using a 20× Plan Apo 0.75 NA objective lens. A Hamamatsu ORCA cooled CCD camera collected the images with 2×2 binning using Nikon Elements software (version 3.0). Movies were manually analyzed using Nikon Elements software or ImageJ. Mitotic duration was defined as the time from nuclear envelope breakdown until anaphase, in the case of normal mitosis, or until exit from prolonged mitosis as indicated by cytoplasmic blebbing accompanied by changes in chromatin as detected by H2B-GFP.
In order to detect differences in mitotic duration among cells in the live-cell imaging screen, a stratified Cox proportional hazards model (Cox, D. R. Regression models and life tables. J Royal Statistics Soc B34, 187-220, (1972)) was fit to censored mitotic duration times (where cells that are not observed exiting mitosis or dying in mitosis are censored at the last known time in mitosis). The Cox proportional hazards model is a semiparameteric approach to modeling time-to-event data, in which covariates are assumed to have constant proportional effects over time relative to a baseline hazard function that can take any form. In this case, stratification on “person” (the individual who analyzed the movie) and “date” (the date the assay was run) allow the baseline hazard function to differ across experimental blocks, but assume a fixed effect of treatment across experimental blocks. The model is thus: hi(t|Z=j)=hj(t)exp(β1×apcini+β2×apcinMi+β3×proTAMEi+β4×proTAMEi:apcinMi+β5×proTAMEi:apcini), j=1 . . . 4 where hi(t) is the hazard function of cell i at time t, hj(t) is the baseline hazard for strata j (with 4 levels, one for each person and date combination), apcini, proTAMEi, and apcinMi are indicator variables for presence or absence of the compounds apcin, proTAME, and apcin-M, respectively in cell i, proTAMEi:apcini is an indicator variable that is 1 if both proTAME and apcin are present in cell i, and 0 otherwise, and proTAMEi:apcinMi is a similar indicator variable for proTAME+apcin-M. In this model, […] represent the effects of apcin, apcin-M, and proTAME alone, while β4 and β5 represent the additional non-additive effect of the compounds beyond what is predicted from the combination of effects of the two compounds alone. This model was fit separately to cells treated with control siRNA or Mad2 siRNA. All statistical analysis was carried out in R 3.0.0 using the functions available as part of the survival package.
In this model, the β coefficients represent the log hazard ratios for exiting mitosis between treated and untreated cells. However, for ease of interpretation the β coefficients are exponentiated to convert them to normal hazard ratios, and then multiplied by 100 to convert to percentages relative to DMSO. These hazard ratios, which are referred to as mitotic exit rate, represent the relative probability that a treated cell in mitosis at time t will exit mitosis in the next time interval compared to an untreated cell.
For ease of interpretation, the treatment effects are presented relative to DMSO for all individual compounds and compound combinations. […]

[4] = proTAME 12 μM, MG132 10 μM, nocodazole 10 nM

## COC(=O)Nc1nc2ccc(C(=O)c3cccs3)cc2[nH]1 [Nocodazole, reference compound]
[1]
  Effect on mitotic spindle: strongly perturbed spindle organization
[2]
  Congression delay: 6 min
[2]; [4]
  Average chromosome congression time: 26.2 min
  Median chromosome congression time: 24 min

## COC(=O)[C@H](CCCN/C(=N\C(=O)OCOC(=O)Cc1ccccc1)NC(=O)OCOC(=O)Cc1ccccc1)NS(=O)(=O)c1ccc(C)cc1 [proTAME]
[1]; Fig 5E, 12 μM proTAME for 2 h
  Average inter-kinetochore distance: 1.26
  Median inter-kinetochore distance: 1.28
[1]
  Effect on mitotic spindle: no measurable differences in mitotic spindle morphology or inter-kinetochore distance
[2]
  Congression delay: 6 min
[2]; 3 μM proTAME or 10 μM MG132
  Delay in chromosome congression: caused no delay in chromosome congression
[2]; Example 2, 12 (μM) proTAME, 15 minutes for DMSO
  Time to achieve metaphase, average: 40 min
[2]; proTAME 3 μM
  Average chromosome congression time: 21.7 min
  Median chromosome congression time: 21 min
[2]; [4]
  Average chromosome congression time: 26.0 min
  Median chromosome congression time: 24 min
[3]; Mad2 siRNA
  % rate of mitotic exit: 0.22%
[3]; Table 3, control siRNA
  Median mitotic duration: 120
[3]; Table 3, mad2 siRNA
  Median mitotic duration: 114
[3]; control siRNA
  % rate of mitotic exit: 2.32%
